Measured values taken from US8084466B2, “Bicyclic heteroaryl-substituted imidazoles as modulators of the histamine H4 receptor” (Janssen Pharmaceutica NV, priority 2007, dated 2011).
pKi: −log10 of the molar value.

Biological target: T1, human histamine H4 receptor (Homo sapiens, UniProt Q9H3N8)
T1 construct: expressed in transfected cells; host or cells: SK-N-MC cells or COS7 cells, transient transfection with pH4R; cell membranes
Assay: Binding Assay on Recombinant Human Histamine H4 Receptor
Details: competition binding with 3H-histamine (5 nM; KD 5 nM), membranes of SK-N-MC or COS7 cells expressing human H4 receptor; average of results; > = highest value tested
Procedure: Biological Methods: Binding Assay on Recombinant Human Histamine H4 Receptor
SK-N-MC cells or COS7 cells were transiently transfected with pH4R and grown in 150 cm^2 tissue culture dishes. Cells were washed with saline solution, scraped with a cell scraper and collected by centrifugation (1000 rpm, 5 min). Cell membranes were prepared by homogenization of the cell pellet in 20 mM Tris-HCl with a polytron tissue homogenizer for 10 sec at high speed. Homogenate was centrifuged at 1000 rpm for 5 min at 4° C. The supernatant was then collected and centrifuged at 20,000×g for 25 min at 4° C. The final pellet was resuspended in 50 mM Tris-HCl. Cell membranes were incubated with ^3H-histamine (5-70 nM) in the presence or absence of excess histamine (10,000 nM). Incubation occurred at room temperature for […]. Membranes were harvested by rapid filtration over Whatman GF/C filters and washed 4 times with ice-cold 50 mM Tris HCl. Filters were then dried, mixed with scintillant and counted for radioactivity. SK-N-MC or COS7 cells expressing human histamine H4 receptor were used to measure the affinity of binding of other compounds and their ability to displace ^3H-ligand binding by incubating the above-described reaction in the presence of various concentrations of inhibitor or compound to be tested. For competition binding studies using ^3H-histamine, Ki values were calculated, based on an experimentally determined KD value of 5 nM and a ligand concentration of 5 nM, according to Y.-C.

T1 sequence (Q9H3N8 whole entry): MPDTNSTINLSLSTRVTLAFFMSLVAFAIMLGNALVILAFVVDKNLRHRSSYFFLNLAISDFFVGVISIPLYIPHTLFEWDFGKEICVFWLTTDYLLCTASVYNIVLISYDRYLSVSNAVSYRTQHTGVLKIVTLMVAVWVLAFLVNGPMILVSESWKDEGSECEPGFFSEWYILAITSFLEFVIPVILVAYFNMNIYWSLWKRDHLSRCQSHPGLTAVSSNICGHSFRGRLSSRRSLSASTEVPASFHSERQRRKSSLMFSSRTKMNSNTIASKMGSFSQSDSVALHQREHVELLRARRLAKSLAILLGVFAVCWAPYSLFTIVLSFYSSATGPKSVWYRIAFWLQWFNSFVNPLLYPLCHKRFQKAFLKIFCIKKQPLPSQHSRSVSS

SMILES	pKi
Cc1cc(C)c2nc(-c3ccc4ccn(CCCCC5CCNCC5)c4c3)[nH]c2c1 [Example 37, 4,6-Dimethyl-2-[1-(4-piperidin-4-yl-butyl)-1H-indol-6-yl]-1H-benzoimidazole]	5.65
Cc1ccc2[nH]c(-c3cc4ccn(CCCC5CCN(C)CC5)c4cc3Cl)nc2c1C [Example 103, 2-{6-Chloro-1-[3-(1-methyl-piperidin-4-yl)-propyl]-1H-indol-5-yl}-4,5-dimethyl-1H-benzoimidazole]	5.56
CN1CCN(CCCn2ccc3cc(-c4nc5cc(Cl)ccc5[nH]4)ccc32)CC1 [Example 65, 5-Chloro-2-{1-[3-(4-methyl-piperazin-1-yl)-propyl]-1H-indol-5-yl}-1H-benzoimidazole]	6.84
Fc1ccc2[nH]c(-c3ccc4ncn(CCCCC5CCNCC5)c4c3)nc2c1 [Example 124, 5-Fluoro-3′-(4-piperidin-4-yl-butyl)-1H,3′H-[2,5′]bibenzoimidazolyl]	< 5.00
Cc1[nH]c(-c2ccc3c(ccn3CCCN3CCN(C)CC3)c2)nc1-c1ccc(Cl)cc1 [Example 80, 5-[4-(4-Chloro-phenyl)-5-methyl-1H-imidazol-2-yl]-1-[3-(4-methyl-piperazin-1-yl)-propyl]-1H-indole]	5.70
FC(F)(F)c1ccc2nc(-c3cccc4c3ccn4CCCCC3CCNCC3)[nH]c2c1 [Example 141, 2-[1-(4-Piperidin-4-yl-butyl)-1H-indol-4-yl]-6-trifluoromethyl-1H-benzoimidazole]	5.66
Cc1ccc2[nH]c(-c3ccc4c(c3)ncn4CCCCC3CCN(C)CC3)nc2c1C [Example 121, 4,5-Dimethyl-1′-[4-(1-methyl-piperidin-4-yl)-butyl]-1H,1′H-[2,5′]bibenzoimidazolyl]	5.52
Cc1ccc2[nH]c(-c3cccc4c3c(Cl)cn4CCCCC3CCNCC3)nc2c1C [Example 73, 2-[3-Chloro-1-(4-piperidin-4-yl-butyl)-1H-indol-4-yl]-4,5-dimethyl-1H-benzoimidazole]	5.77
Cc1cc(C)c2nc(-c3ccc4ccn(CCCCC5CCN(C)CC5)c4c3)[nH]c2c1 [Example 25, 4,6-Dimethyl-2-{1-[4-(1-methyl-piperidin-4-yl)-butyl]-1H-indol-6-yl}-1H-benzoimidazole]	6.46
Cc1c(F)ccc2[nH]c(-c3ccc4ncn(CCCCC5CCN(C)CC5)c4c3)nc12 [Example 45, 5-Fluoro-4-methyl-3′-[4-(1-methyl-piperidin-4-yl)-butyl]-1H,3′H-[2,5′]bibenzoimidazolyl]	5.78
CN1CCC(CCCn2cc(Cl)c3cc(-c4nc5cc(C(C)(C)C)ccc5[nH]4)ccc32)CC1 [Example 28, 5-tert-Butyl-2-{3-chloro-1-[3-(1-methyl-piperidin-4-yl)-propyl]-1H-indol-5-yl}-1H-benzoimidazole]	6.46
Cc1c(F)ccc2[nH]c(-c3ccc4c(c3)c(CN(C)C)cn4CCCC3CCN(C)CC3)nc12 [Example 86, {5-(5-Fluoro-4-methyl-1H-benzoimidazol-2-yl)-1-[3-(1-methyl-piperidin-4-yl)-propyl]-1H-indol-3-ylmethyl}-dimethyl-amine]	< 5.00
CN1CCC(CCCCn2ccc3c(-c4nc5cc(C(F)(F)F)ccc5[nH]4)cccc32)CC1 [Example 18, 2-{1-[4-(1-Methyl-piperidin-4-yl)-butyl]-1H-indol-4-yl}-5-trifluoromethyl-1H-benzoimidazole]	7.07
Cc1c(F)ccc2[nH]c(-c3cc4ccn(CCCC5CCN(C)CC5)c4cc3Cl)nc12 [Example 50, 2-{6-Chloro-1-[3-(1-methyl-piperidin-4-yl)-propyl]-1H-indol-5-yl}-5-fluoro-4-methyl-1H-benzoimidazole]	5.48
CN(C)Cc1cn(CCCCC2CCNCC2)c2ccc(-c3nc4cc(C(C)(C)C)ccc4[nH]3)cc12 [Example 39, [5-(5-tert-Butyl-1H-benzoimidazol-2-yl)-1-(4-piperidin-4-yl-butyl)-1H-indol-3-ylmethyl]-dimethyl-amine]	5.54
Cc1c(F)ccc2[nH]c(-c3cnc4c(ccn4CCCC4CCN(C)CC4)c3)nc12 [Example 46, 5-Fluoro-4-methyl-2-{1-[3-(1-methyl-piperidin-4-yl)-propyl]-1H-pyrrolo[2,3-b]pyridin-5-yl}-1H-benzoimidazole]	7.92
Cc1ccc2[nH]c(-c3ccc4c(c3)CCN4CCCC3CCNCC3)nc2c1C [Example 56, 4,5-Dimethyl-2-[1-(3-piperidin-4-yl-propyl)-2,3-dihydro-1H-indol-5-yl]-1H-benzoimidazole]	5.72
Cc1cc(C)c2nc(-c3ccc4c(ccn4CCCC4CCN(C)CC4)c3)[nH]c2c1 [Example 61]	6.87

SMILES	pKi
Cc1ccc(-c2nc(-c3ccc4c(ncn4CCCC4CCN(C)CC4)c3C)[nH]c2-c2ccc(Cl)cc2)cc1 [Example 85]	8.30
CN1CCC(CCCCn2cc(Cl)c3c(-c4nc5cc(C(F)(F)F)ccc5[nH]4)cccc32)CC1 [Example 30, 2-{3-Chloro-1-[4-(1-methyl-piperidin-4-yl)-butyl]-1H-indol-4-yl}-5-trifluoromethyl-1H-benzoimidazole]	7.33
Cc1c(F)ccc2[nH]c(-c3ccc4c(ccn4CCCN4CCNCC4)c3)nc12 [Example 33, 5-Fluoro-4-methyl-2-[1-(3-piperazin-1-yl-propyl)-1H-indol-5-yl]-1H-benzoimidazole]	5.89
Cc1cccc2[nH]c(-c3ccc4ncn(CCCCC5CCNCC5)c4c3)nc12 [Example 122, 4-Methyl-3′-(4-piperidin-4-yl-butyl)-1H,3′H-[2,5′]bibenzoimidazolyl]	5.78
Cc1ccc2[nH]c(-c3cccc4c3ccn4CCCCC3CCN(C)CC3)nc2c1C [Example 78, 4,5-Dimethyl-2-{1-[4-(1-methyl-piperidin-4-yl)-butyl]-1H-indol-4-yl}-1H-benzoimidazole]	6.81
Cc1c(F)ccc2[nH]c(-c3cccc4c3c(Cl)cn4CCCCC3CCNCC3)nc12 [Example 133, 2-[3-Chloro-1-(4-piperidin-4-yl-butyl)-1H-indol-4-yl]-5-fluoro-4-methyl-1H-benzoimidazole]	< 5.00
Cc1cccc2[nH]c(-c3ccc4ccn(CCCCC5CCN(C)CC5)c4c3)nc12 [Example 27, 4-Methyl-2-{1-[4-(1-methyl-piperidin-4-yl)-butyl]-1H-indol-6-yl}-1H-benzoimidazole]	6.12
CN1CCC(CCCCn2ccc3c(-c4nc5cc(F)c(F)cc5[nH]4)cccc32)CC1 [Example 67, 5,6-Difluoro-2-{1-[4-(1-methyl-piperidin-4-yl)-butyl]-1H-indol-4-yl}-1H-1 5 benzoimidazole]	6.74
Cc1c(F)ccc2[nH]c(-c3ccc4c(ccn4CCCC4CCN(C)CC4)c3)nc12 [Example 11, 5-Fluoro-4-methyl-2-{1-[3-(1-methyl-piperidin-4-yl)-propyl]-1H-indol-5-yl}-1H-benzoimidazole]	7.11
Cc1c(-c2nc3c(C)c(F)ccc3[nH]2)ccc2c1ccn2CCCC1CCN(C)CC1 [Example 7, 5-Fluoro-4-methyl-2-{4-methyl-1-[3-(1-methyl-piperidin-4-yl)-propyl]-1H-indol-5-yl}-1H-benzoimidazole]	7.54
Cc1nc(-c2ccc3c(ncn3CCCC3CCN(C)CC3)c2C)[nH]c1-c1cc(Cl)cc(Cl)c1 [Example 83, 5-[5-(3,5-Dichloro-phenyl)-4-methyl-1H-imidazol-2-yl]-4-methyl-1-[3-(1-methyl-piperidin-4-yl)-propyl]-1H-benzoimidazole]	9.52
Cc1c(F)ccc2[nH]c(-c3ccc4c(ncn4CCCC4CCN(C)CC4)c3C)nc12 [Example 51, 5-Fluoro-4,4′-dimethyl-1′-[3-(1-methyl-piperidin-4-yl)-propyl]-1H,1′H-[2,5′]bibenzoimidazolyl]	8.15
Cc1nc2ccc3nc(-c4cccc5c4c(Cl)cn5CCCCC4CCN(C)CC4)[nH]c3c2s1 [Example 136, 7-{3-Chloro-1-[4-(1-methyl-piperidin-4-yl)-butyl]-1H-indol-4-yl}-2-methyl-8H-imidazo[4′,5′:3,4]benzo[1,2-d]thiazole]	6.03
Cc1nc2ccc3nc(-c4cccc5c4c(Cl)cn5CCCCC4CCNCC4)[nH]c3c2s1 [Example 134, 7-[3-Chloro-1-(4-piperidin-4-yl-butyl)-1H-indol-4-yl]-2-methyl-8H-imidazo[4′,5′:3,4]benzo[1,2-d]thiazole]	< 5.00
FC(F)(F)c1ccc2[nH]c(-c3cccc4c3c(Cl)cn4CCCCC3CCNCC3)nc2c1 [Example 130, 2-[3-Chloro-1-(4-piperidin-4-yl-butyl)-1H-indol-4-yl]-5-trifluoromethyl-1H-benzoimidazole]	< 5.00
Cc1ccc2[nH]c(-c3ccc4c(c3C)CCN4CCCC3CCN(C)CC3)nc2c1C [Example 2, 4,5-Dimethyl-2-{4-methyl-1-[3-(1-methyl-piperidin-4-yl)-propyl]-2,3-dihydro-1H-indol-5-yl}-1H-benzoimidazole]	7.82
Cc1c(F)ccc2[nH]c(-c3ccc4c(c3)ncn4CCCCC3CCN(C)CC3)nc12 [Example 44, 5-Fluoro-4-methyl-1′-[4-(1-methyl-piperidin-4-yl)-butyl]-1H,1′H-[2.5′]bibenzoimidazolyl]	5.52
